The results in this text go back to patent US11932624B2, “MDM2 degraders and uses thereof” (Kymera Therapeutics, Inc., priority 2020, dated 2024).

Structures are written as SMILES. Bounds are passed on as bounds.

This assay relates to RS411 cells. Briefly: Cell Viability CTG Assay (CellTiter Glo) in RS411 cells. Type of assay: cell-based. The following applies: Homo sapiens. The method, then: Example 23. Cell Viability CTG Assay
Day 0: Compounds or DMSO 60 nL were stamped to the cell plate as the platemap. RS411 cells were centrifuged at 800 rpm for 5 min, suspended with culture medium, and counted with Countess (Invitrogen). The cell density was adjusted to the recommend information. 30 μL of cell solution (1000 cells/well) was added to the assay plate as the platemap and 30 uL of media was added to column 2 and column 23 as the platemap. The plate was spun down briefly. The final concentration of the compounds started at 10 μM (3 fold dilution and 11 doses) and final DMSO concentration was 0.2%. The plate was spun down briefly and incubated at 37° C., 5% CO2 for 1-4 days.
30 μL CellTiter Glo reagent was added to each well and the plate was centrifuged at 1000 rpm for 30 sec. The plate was shaken for 1 min and centrifuged at 1000 rpm for 30 sec. The plate was incubated at RT for 10 min to stabilize the luminescent signal and the luminescence was read by EnVision.
The letter codes for IC50 indicate the concentration of compound required to affect 50% of cells: A (<0.05 μM), B (0.05-0.1 μM), C (0.1-0.5 μM), D (0.5-1.0 μM), and E (>1.0 μM).
In general terms: In ATP-based viability assays light output follows the ATP content of the culture.

In general, IC50 refers to the midpoint of a concentration-inhibition curve. Read a high IC50 as weaker potency. For the molecule `C#CCCCCCCCC1N(c2ccc(C(=O)NC)cc2OC)C(=O)[C@H]2[C@H](c3cccc(Cl)c3F)[C@@](C#N)(c3ccc(Cl)cc3F)[C@H](CC(C)(C)C)N12` (stereo partly drawn) [I-127, 4-[(5S,6R,7S,7aR)-7-(3-chloro-2-fluoro-phenyl)-6-(4-chloro-2-fluoro-phenyl)-6-cyano-5-(2,2-dimethylpropyl)-3-non-8-ynyl-1-oxo-3,5,7,7a-tetrahydropyrrolo[1,2-c]imidazol-2-yl]-3-methoxy-N-methyl-benzamide], where the note is “RS4-11, 24 h, duration 1 day”, the IC50 was over 1000 nM.

`O=C1CCN(c2cnc3cc(C#CCOC4CCN(C(=O)c5ccc(NC(=O)[C@@H]6NC7(CCCCC7)[C@@]7(C(=O)Nc8cc(Cl)ccc87)[C@H]6c6cccc(Cl)c6F)cc5)CC4)ccn23)C(=O)N1` [I-106] had an IC50 (RS4-11, 24 h, duration 1 day) of under 50 nM.

Where the note is “RS4-11, 24 h, duration 1 day”, `Cn1c(=O)n(C2CCC(=O)NC2=O)c2cccc(CN3CCC(OC4CCN(C[C@H]5CC[C@H](NC(=O)[C@@H]6NC7(CCCCC7)[C@@]7(C(=O)Nc8cc(Cl)ccc87)[C@H]6c6cccc(Cl)c6F)CC5)CC4)CC3)c21` (stereo partly drawn) [I-113] had an IC50 of under 50 nM.

For the setting “RS4-11, 24 h, duration 1 day”, `Cn1c(=O)n(C2CCC(=O)NC2=O)c2cccc(CCCOC3CCN(C(=O)c4ccc(NC(=O)[C@@H]5NC6(CCCCC6)[C@@]6(C(=O)Nc7cc(Cl)ccc76)[C@H]5c5cccc(Cl)c5F)cc4)CC3)c21` (stereo partly drawn) [I-64] came in with an IC50 of under 50 nM.

Molecule `O=C1CCC(N2Cc3c(C#CCCCNC(=O)c4ccc(NC(=O)[C@@H]5NC6(CCCCC6)[C@@]6(C(=O)Nc7cc(Cl)ccc76)[C@H]5c5cccc(Cl)c5F)cc4)cccc3C2=O)C(=O)N1` (stereo partly drawn) [I-29] showed an IC50 (RS4-11, 96 h, duration 4 days) of under 50 nM.

For the molecule `Cn1c(=O)n(C2CCC(=O)NC2=O)c2ccc(CCC3CCN(Cc4ccc(NC(=O)[C@@H]5NC6(CCCCC6)[C@@]6(C(=O)Nc7cc(Cl)ccc76)[C@H]5c5cccc(Cl)c5F)cc4)CC3)cc21` (stereo partly drawn) [I-102], the IC50 (RS4-11, 24 h, duration 1 day) is under 50 nM.

In turn, `COc1ccc2c(c1C1CCN(C[C@H]3CC[C@H](NC(=O)[C@@H]4NC5(CCCCC5)[C@@]5(C(=O)Nc6cc(Cl)ccc65)[C@H]4c4cccc(Cl)c4F)CC3)CC1)n(C)c(=O)n2C1CCC(=O)NC1=O` (stereo partly drawn) [I-187] came in with an IC50 (RS4-11, 24 h, duration 1 day) of under 50 nM.

For the setting “RS4-11, 24 h, duration 1 day”, `Cn1c(=O)n(C2CCC(=O)NC2=O)c2ccc(CCCCCNC(=O)[C@H]3CC[C@H](NC(=O)[C@@H]4NC5(CCC(C)(C)CC5)[C@@]5(C(=O)Nc6cc(Cl)ccc65)[C@H]4c4cccc(Cl)c4F)CC3)cc21` (stereo partly drawn) [I-72] showed a 50% inhibitory concentration (IC50) of under 50 nM.

In the case of `CN(C[C@@H]1CN(CC#Cc2ccc3c(c2)n(C)c(=O)n3C2CCC(=O)NC2=O)CCO1)C(=O)c1ccc(NC(=O)[C@@H]2NC3(CCCCC3)[C@@]3(C(=O)Nc4cc(Cl)ccc43)[C@H]2c2cccc(Cl)c2F)cc1` (stereo partly drawn) [I-56], the IC50 (RS4-11, 24 h, duration 1 day) is under 50 nM.

As for `COc1cc(C(=O)NCCCCCc2ccc3c(c2)n(C)c(=O)n3C2CCC(=O)NC2=O)ccc1NC(=O)[C@@H]1N[C@@H](CC(C)(C)C)[C@](C#N)(c2ccc(Cl)cc2F)[C@H]1c1cccc(Cl)c1F` (stereo partly drawn) [I-16], the IC50 (RS4-11, 96 h, duration 4 days) was under 50 nM.

`COc1cc(C(=O)NCCCCCc2cccc3c2n(C)c(=O)n3C2CCC(=O)NC2=O)ccc1NC(=O)[C@@H]1N[C@@H](CC(C)(C)C)[C@](C#N)(c2ccc(Cl)cc2F)[C@H]1c1cccc(Cl)c1F` (stereo partly drawn) [I-28]: the concentration for half-maximal inhibition (IC50) (RS4-11, 72 h, duration 3 days) is under 50 nM.

The molecule `COc1cc2c(cc1OC(C)C)C(c1ccc(Cl)cc1)N(c1ccc(N(C)C[C@H]3CC[C@H](N(C)CCOCCOCC(=O)N[C@H](C(=O)N4C[C@H](O)C[C@H]4C(=O)NCc4ccc(-c5scnc5C)cc4)C(C)(C)C)CC3)cc1)C(=O)C2` (stereo partly drawn) [I-175] had a half-maximal inhibitory concentration (IC50) (RS4-11, 24 h, duration 1 day) of over 1000 nM.

Under “RS4-11, 24 h, duration 1 day”, `O=C1CCN(c2cnc3cc(C#CC4CCN(C[C@H]5CC[C@H](NC(=O)[C@@H]6NC7(CCCCC7)[C@@]7(C(=O)Nc8cc(Cl)ccc87)[C@H]6c6cccc(Cl)c6F)CC5)CC4)ccn23)C(=O)N1` [I-119] registered an IC50 of under 50 nM.

In the case of `O=C1CCN(c2cnc3cc(C4CCN(C(=O)c5ccc(NC(=O)[C@@H]6NC7(CCCCC7)[C@@]7(C(=O)Nc8cc(Cl)ccc87)[C@H]6c6cccc(Cl)c6F)cc5)CC4)ccn23)C(=O)N1` [I-144], the IC50 (RS4-11, 24 h, duration 1 day) was 50 to 100 nM.

Take `CN1[C@@H](C(=O)Nc2ccc(C(=O)NCCCCCc3ccc4c(c3)n(C)c(=O)n4C3CCC(=O)NC3=O)cc2)[C@H](c2cccc(Cl)c2F)[C@]2(C(=O)Nc3cc(Cl)ccc32)C12CCC(C)(C)CC2` (stereo partly drawn) [I-81]: the IC50 (RS4-11, 24 h, duration 1 day) is under 50 nM.

The molecule `Cn1c(=O)n(C2CCC(=O)NC2=O)c2cccc(CCC3CC4(CCN(C[C@H]5CC[C@H](NC(=O)[C@@H]6NC7(CCCCC7)[C@@]7(C(=O)Nc8cc(Cl)ccc87)[C@H]6c6cccc(Cl)c6F)CC5)CC4)C3)c21` (stereo partly drawn) [I-112] returned an IC50 (RS4-11, 24 h, duration 1 day) of under 50 nM.

As to `COc1cc(C(=O)NCCOCCOCCNC(=O)c2ccc(NC(=O)[C@@H]3N[C@@H](CC(C)(C)C)[C@](C#N)(c4ccc(Cl)cc4F)[C@H]3c3cccc(Cl)c3F)c(OC)c2)ccc1NC(=O)[C@@H]1N[C@@H](CC(C)(C)C)[C@](C#N)(c2ccc(Cl)cc2F)[C@H]1c1cccc(Cl)c1F` [I-33], the IC50 (RS4-11, 96 h, duration 4 days) was over 1000 nM.

As for `CC(C)(C)C[C@@H]1N[C@@H](C(=O)N[C@H]2CC[C@H](CNCCCC#Cc3cccn4c(N5CCC(=O)NC5=O)cnc34)CC2)[C@H](c2cccc(Cl)c2F)[C@@]1(C#N)c1ccc(Cl)cc1F` [I-202], the IC50 (RS4-11, 24 h, duration 1 day) was over 1000 nM.

Regarding `Cn1c(=O)n(C2CCC(=O)NC2=O)c2ccc(C#CCCN3CCC(NC(=O)[C@@H]4NC5(CCCCC5)[C@@]5(C(=O)Nc6cc(Cl)ccc65)[C@H]4c4cccc(Cl)c4F)CC3)cc21` (stereo partly drawn) [I-169], the half-inhibitory concentration (IC50) (RS4-11, 24 h, duration 1 day) was over 1000 nM.

`COc1cc2c(cc1OC(C)C)C(c1ccc(Cl)cc1)N(c1ccc(N(C)C[C@H]3CC[C@H](N(C)CCCCc4ccn5c(N6CCC(=O)NC6=O)cnc5c4)CC3)cc1)C(=O)C2` (stereo partly drawn) [I-212] came in with an IC50 (RS4-11, 24 h, duration 1 day) of over 1000 nM.

As to `Cn1c(=O)n(C2CCC(=O)NC2=O)c2ccc(CCC3CCN(CCNC(=O)[C@@H]4NC5(CCCCC5)[C@@]5(C(=O)Nc6cc(Cl)ccc65)[C@H]4c4cccc(Cl)c4F)CC3)cc21` (stereo partly drawn) [I-138], under “RS4-11, 24 h, duration 1 day”, the IC50 is over 1000 nM.

Turning to `Cn1c(=O)n(C2CCC(=O)NC2=O)c2ccc(C#CC3CCN(Cc4ccc(NC(=O)[C@@H]5NC6(CCCCC6)[C@@]6(C(=O)Nc7cc(Cl)ccc76)[C@H]5c5cccc(Cl)c5F)cc4)CC3)cc21` (stereo partly drawn) [I-79], where the note is “RS4-11, 24 h, duration 1 day”, the IC50 is under 50 nM.

For the setting “RS4-11, 24 h, duration 1 day”, `COc1cc2c(cc1OC(C)C)C(c1ccc(Cl)cc1)N(c1ccc(N(C)C[C@H]3CC[C@H](N4CCN(CCCCCc5cccc6c5n(C)c(=O)n6C5CCC(=O)NC5=O)C(=O)C4)CC3)cc1)C(=O)C2` (stereo partly drawn) [I-192] displayed an IC50 of under 50 nM.

`Cn1c(=O)n(C2CCC(=O)NC2=O)c2ccc(C(=O)CC3CCN(C[C@H]4CC[C@H](NC(=O)[C@@H]5NC6(CCOCC6)[C@@]6(C(=O)Nc7cc(Cl)ccc76)[C@H]5c5cccc(Cl)c5F)CC4)CC3)cc21` (stereo partly drawn) [I-152] displayed an IC50 (RS4-11, 24 h, duration 1 day) of 500 to 1000 nM.

Molecule `Cn1c(=O)n(C2CCC(=O)NC2=O)c2ccc(CCCN3CCN(C[C@H]4CC[C@H](NC(=O)[C@@H]5NC6(CCCCC6)[C@@]6(C(=O)Nc7cc(Cl)ccc76)[C@H]5c5cccc(Cl)c5F)CC4)CC3)cc21` (stereo partly drawn) [I-114] gave a 50% inhibitory concentration (IC50) (RS4-11, 24 h, duration 1 day) of under 50 nM.

Take `Cn1c(=O)n(C2CCC(=O)NC2=O)c2cccc(OC3CC4(CCN(C(=O)c5ccc(NC(=O)[C@@H]6NC7(CCCCC7)[C@@]7(C(=O)Nc8cc(Cl)ccc87)[C@H]6c6cccc(Cl)c6F)cc5)CC4)C3)c21` (stereo partly drawn) [I-44]: the IC50 (RS4-11, 24 h, duration 1 day) was under 50 nM.

In the case of `CN(CCCCCc1ccc2c(c1)n(C)c(=O)n2C1CCC(=O)NC1=O)C[C@H]1CC[C@H](NC(=O)[C@@H]2NC3(CCCCC3)[C@@]3(C(=O)Nc4cc(Cl)ccc43)[C@H]2c2cccc(Cl)c2F)CC1` (stereo partly drawn) [I-93], the IC50 (RS4-11, 24 h, duration 1 day) was under 50 nM.
